Where a name gives a salt, the structure may show the parent alone.

Assay [1] has as its target T1, cPLA2 crudely purified from the cytoplasm fraction of U937 (Homo sapiens, UniProt P47712).
T1 construct: cPLA2 crudely purified from the cytoplasm fraction of U937; endogenous in cells; host or cells: U937 cells (cytoplasm fraction, crude purification)
T1 sequence (P47712 1-749): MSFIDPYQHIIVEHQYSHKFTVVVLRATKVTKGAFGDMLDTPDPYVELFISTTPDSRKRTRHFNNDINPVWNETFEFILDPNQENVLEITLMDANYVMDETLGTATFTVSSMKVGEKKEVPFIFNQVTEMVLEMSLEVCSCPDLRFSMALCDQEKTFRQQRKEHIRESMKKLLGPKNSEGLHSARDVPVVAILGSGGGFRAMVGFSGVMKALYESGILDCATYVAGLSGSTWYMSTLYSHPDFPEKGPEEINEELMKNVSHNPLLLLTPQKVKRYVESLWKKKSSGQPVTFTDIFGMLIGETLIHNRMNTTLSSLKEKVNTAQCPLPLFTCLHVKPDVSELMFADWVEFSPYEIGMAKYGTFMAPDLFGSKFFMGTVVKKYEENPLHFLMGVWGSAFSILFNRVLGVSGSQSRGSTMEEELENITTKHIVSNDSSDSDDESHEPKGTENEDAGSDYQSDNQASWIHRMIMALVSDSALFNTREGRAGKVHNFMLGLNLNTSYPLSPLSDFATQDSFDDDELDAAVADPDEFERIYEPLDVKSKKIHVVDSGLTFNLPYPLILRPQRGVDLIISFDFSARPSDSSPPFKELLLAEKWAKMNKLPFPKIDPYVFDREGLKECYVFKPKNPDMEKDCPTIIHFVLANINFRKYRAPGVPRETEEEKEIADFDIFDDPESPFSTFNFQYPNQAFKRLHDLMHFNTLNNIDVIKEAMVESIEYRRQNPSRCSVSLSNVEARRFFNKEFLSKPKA
The assay can be described thus: Measurement of cPLA2 inhibitory activity (release of [14C]-arachidonic acid from phosphatidyl choline liposome). Type of assay: biochemical. To be noted: cPLA2 from U937 cytoplasm fraction, [14C]arachidonyl-phosphatidyl choline liposome, 37° C., 60 minutes; read-out: cPLA2 inhibitory activity, 50% inhibiting concentration IC50. In outline: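 The read-out is radioactivity from extracted [14C]-arachidonic acid, freed over 60 min at 37° C from liposomes of 14C-arachidonyl phosphatidylcholine (10 μM PC in the added solution). Buffer was 50 mM HEPES pH 7.5 with Ca2+, DTT, NaCl and BSA. IC50 was derived from inhibition relative to enzyme control minus no-enzyme control.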

In assay [2] the test system is PGE2 production in mouse peritoneal exudate cells. The assay can be described thus: LPS-induced PGE2 production system using mouse peritoneal exudate cells. Type of assay: cell-based. The conditions noted are these: LPS 10 μg/ml, 6 hours. The method, then: For evaluation of the PGE2 production inhibiting activity, the lipopolysaccharide (LPS)-induced PGE2 production system using mouse peritoneal exudate cells with reference to the method of Kim et al. (see Kim, Y K et al., Biol Pharm Bull 25: 472, 2002) was used. That is, 2 ml of thioglycolate solution (made by Sigma, Brewer's Thioglycorate medium) per mice were intraperitoneally administered to 8-week old female C3H/HeN mice (Charles River Japan). After 4 days, a phosphate buffer saline (PBS) 5 ml was used to wash the abdominal cavity and the infiltrating cells were recovered. The recovered cells were suspended in a predetermined concentration in an RPMI1640 medium (Nacalai Tesque) containing 10% bovine fetal serum (BioWhittaker) and 10 μg/ml gentamycin (Invitrogen).
The infiltrating cell suspension 100 μl containing 2×10^5 cells per well was inoculated in a 96-well culture plate, then the test compound solution or solvent 50 μl was added. Under conditions of 5% CO2 and 37° C., this was precultured for 15 minutes, then LPS (made by Sigma: L-4524) solution 50 μl (final concentration of LPS of 10 μg/ml) was added, and the mixture was cultured for a further 6 hours. After the end of the culture, the culture supernatant was recovered and the PGE2 concentration in the supernatant was measured using an EIA kit (made by Amersham). Based on the measurement value, the test compound concentration suppressing 50% of the PGE2 production at the time of non-addition of a compound (IC50 value) was calculated.

As to `O=C(O)CCc1ccc2c(c1)c(CCc1ccccc1)cn2-c1ccccc1` [Example 17, 3-[1-phenyl-3-(2-phenylethyl)-1H-indol-5-yl]propanoic acid 2-amino-2-(hydroxymethyl)propane-1,3-diol salt (1:1)], the figures for the IC50 in assay [1] and in assay [2] were 38 nM and 1320 nM, respectively.
Consider `Cc1c(CCc2ccccc2)c2cc(CCC(=O)O)ccc2n1-c1ccccc1` [Example 48, 3-[2-methyl-1-phenyl-3-(2-phenylethyl)-1H-indol-5-yl]propanoic acid], for which the IC50 turned out to be 126 nM in assay [1] and 2490 nM in assay [2].
On to `CCOc1ccc(-n2cc(CCc3ccccc3)c3cc(CCC(=O)C(F)(F)F)ccc32)cc1` [Example 114, 4-[1-(4-ethoxyphenyl)-3-(2-phenylethyl)-1H-indol-5-yl]-1,1,1-trifluorobutan-2-one], for which the values for the IC50 in assay [1] and in assay [2] were 740 nM and 2220 nM, respectively.
Turning to `CCOc1ccc(-n2cc(CCc3ccccc3)c3cc(CCC(=O)NC#N)ccc32)cc1` [Example 115, N-cyano-3-[1-(4-ethoxyphenyl)-3-(2-phenylethyl)-1H-indol-5-yl]propanamide], the IC50 in assay [1] came out at 61 nM; in assay [2], 300 nM.
Consider `O=C(O)CCc1ccc2c(c1)c(CCc1ccccc1)cn2-c1ccc(OCc2ccccc2)cc1` [Example 124, 3-{1-[4-(benzyloxy)phenyl]-3-(2-phenylethyl)-1H-indol-5-yl}propanoic acid 2-amino-2-(hydroxymethyl)propane-1,3-diol salt (1:1)], for which the IC50 in assay [1] is 8 nM; in assay [2], 130 nM.
Regarding `O=C(O)CCc1ccc2c(c1)c(CCc1ccccc1)cn2-c1cccnc1` [Example 128, 3-[3-(2-phenylethyl)-1-(3-pyridinyl)-1H-indol-5-yl]propanoic acid hydrochloride], the IC50 in assay [1] is 250 nM; in assay [2] it was 6430 nM.
The like results for `CN(C)c1ccc(-n2cc(CCc3ccccc3)c3cc(CCC(=O)O)ccc32)nc1` [Example 138, 3-{1-[5-(dimethylamino)-2-pyridinyl]-3-(2-phenylethyl)-1H-indol-5-yl}propanoic acid hydrochloride] were, in that order, 34 nM and 580 nM.
As for `CN(C)C(=O)c1ccc(-n2cc(CCc3ccccc3)c3cc(CCC(=O)O)ccc32)cc1` [Example 310, 3-[1-{4-[(dimethylamino)carbonyl]phenyl}-3-(2-phenylethyl)-1H-indol-5-yl]propanoic acid], the IC50 in assay [1] amounted to 354 nM.
Same read-out and setting: then `O=C(O)CCc1ccc2c(c1)c(CCc1ccccc1)cn2-c1ccc(C(=O)N2CCOCC2)cc1` [Example 312, 3-{1-[4-(morpholin-4-ylcarbonyl)phenyl]-3-(2-phenylethyl)-1H-indol-5-yl}propanoic acid], with 404 nM; and `CN(C)C(=O)c1cccc(-n2cc(CCc3ccccc3)c3cc(CCC(=O)O)ccc32)c1` [Example 314, 3-{1-[3-(dimethylcarbamoyl)phenyl]-3-(2-phenylethyl)-1H-indol-5-yl}propanoic acid], with above 3000 nM.
As to `O=C(O)CCc1ccc2c(c1)c(CCc1ccccc1)cn2-c1cccc(C(=O)N2CCOCC2)c1` [Example 316, 3-{1-[3-(morpholin-4-ylcarbonyl)phenyl]-3-(2-phenylethyl)-1H-indol-5-yl}propanoic acid], the IC50 in assay [1] is above 3000 nM.
`CN(C)S(=O)(=O)c1ccc(-n2cc(CCc3ccccc3)c3cc(CCC(=O)O)ccc32)cc1` [Example 318, 3-[1-{4-[(dimethylamino)sulfonyl]phenyl}-3-(2-phenylethyl)-1H-indol-5-yl]propanoic acid]: the IC50 in assay [1] is 271 nM.
For `O=C(O)CCc1ccc2c(c1)c(CCc1ccccc1)cn2-c1ccc(S(=O)(=O)N2CCOCC2)cc1` [Example 320, 3-{1-[4-(morpholin-4-ylsulfonyl)phenyl]-3-(2-phenylethyl)-1H-indol-5-yl}propanoic acid], the IC50 in assay [1] stood at 258 nM.
`CN(C)S(=O)(=O)c1cccc(-n2cc(CCc3ccccc3)c3cc(CCC(=O)O)ccc32)c1` [Example 322, 3-[1-{3-[(dimethylamino)sulfonyl]phenyl}-3-(2-phenylethyl)-1H-indol-5-yl]propanoic acid]: the IC50 in assay [1] is 1910 nM.
In the case of `O=C(O)CCc1ccc2c(c1)c(CCc1ccccc1)cn2-c1cccc(S(=O)(=O)N2CCOCC2)c1` [Example 324, 3-{1-[3-(morpholin-4-ylsulfonyl)phenyl]-3-(2-phenylethyl)-1H-indol-5-yl}propanoic acid], in assay [1], the IC50 came out at 1630 nM.
Same read-out and setting: then `CS(=O)(=O)c1ccc(-n2cc(CCc3ccccc3)c3cc(CCC(=O)O)ccc32)cc1` [Example 326, 3-{1-[4-(methylsulfonyl)phenyl]-3-(2-phenylethyl)-1H-indol-5-yl}propanoic acid], with 486 nM.
For `O=C(O)CCc1ccc2c(c1)c(CCc1ccccc1)cn2-c1ccc(OCCCO)cc1` [Example 328, 3-{1-[4-(3-hydroxypropoxy)phenyl]-3-(2-phenylethyl)-1H-indol-5-yl}propanoic acid 2-amino-2-(hydroxymethyl)propane-1,3-diol salt (1:1)], in assay [1], the IC50 was 57 nM.
As to `O=C(CCc1ccc2c(c1)c(CCc1ccccc1)cn2-c1ccc(OC(F)F)cc1)C(F)(F)F` [Example 329, 4-{1-[4-(difluoromethoxy)phenyl]-3-(2-phenylethyl)-1H-indol-5-yl}-1,1,1-trifluorobutan-2-one], the IC50 in assay [1] was 318 nM.
Take `O=C(CCc1ccc2c(c1)c(CCc1ccccc1)cn2-c1ccc(Oc2ccccc2)cc1)C(F)(F)F` [Example 330, 1,1,1-trifluoro-4-[1-(4-phenoxyphenyl)-3-(2-phenylethyl)-1H-indol-5-yl]butan-2-one]: in assay [1], the IC50 was found to be 726 nM.
As to `CS(=O)(=O)NC(=O)CCc1ccc2c(c1)c(CCc1ccccc1)cn2-c1ccc(Oc2ccccc2)cc1` [Example 331, N-(methylsulfonyl)-3-[1-(4-phenoxyphenyl)-3-(2-phenylethyl)-1H-indol-5-yl]propanamide], the IC50 in assay [1] was above 3000 nM.
As for `O=C(CCc1ccc2c(c1)c(CCc1ccccc1)cn2-c1ccc(OC(F)F)cc1)NS(=O)(=O)c1ccccc1` [Example 332, 3-{1-[4-(difluoromethoxy)phenyl]-3-(2-phenylethyl)-1H-indol-5-yl}-N-(phenylsulfonyl)propanamide], the IC50 in assay [1] is above 3000 nM.
On to `Cc1ccc(S(=O)(=O)NC(=O)CCc2ccc3c(c2)c(CCc2ccccc2)cn3-c2ccc(Oc3ccccc3)cc2)cc1` [Example 333], for which the IC50 in assay [1] is above 3000 nM.
Turning to `CSc1ccc(-n2cc(CCc3ccccc3)c3cc(CCC(=O)O)ccc32)cc1` [Example 334, 3-[1-(4-methylthiophenyl)-3-(2-phenylethyl)-1H-indol-5-yl]propanoic acid], in assay [1], the IC50 came to 11 nM.
For `O=C(O)CCc1ccc2c(c1)c(CCc1ccccc1)cn2-c1ccc(SCc2ccccc2)cc1` [Example 335, 3-[1-(4-benzylthiophenyl)-3-(2-phenylethyl)-1H-indol-5-yl]propanoic acid], the IC50 in assay [1] came to 9 nM.
Still for that read-out and setting: then `O=C(O)CCc1ccc2c(c1)c(CCCc1ccccc1)cn2-c1ccc(OCc2ccccc2)cc1` [Example 339, 3-{1-[4-(benzyloxy)phenyl]-3-(3-phenylpropyl)-1H-indol-5-yl}propanoic acid], with 460 nM; and `O=C(O)CCc1ccc2c(c1)c(CCCc1ccccc1)cn2-c1ccc(O)cc1` [Example 340, 3-[1-(4-hydroxyphenyl)-3-(3-phenylpropyl)-1H-indol-5-yl]propanoic acid], with 568 nM.
On the same count and under the same terms, then `O=C(O)CCc1ccc2c(c1)c(CCc1ccccc1)cn2-c1ccc(OCCOCc2ccccc2)cc1` [Example 342, 3-[1-{4-[2-(benzyloxy)ethoxy]phenyl}-3-(2-phenylethyl)-1H-indol-5-yl]propanoic acid], with 2 nM.

The values are drawn from patent US8293781B2, “Indole derivatives having cPLA2 inhibiting activity and applications and production methods of the same” (Daiichi Sankyo Company, Limited, priority 2007, dated 2012).
